Earlier results as cited in patent publication US7863273B2, “Process for the preparation of an optically active 5H-pyrrolo [3,4-B] pyrazine derivative” (Glenmark Generics Ltd., priority 2006, dated 2011).

Tests used:
[1] = test system: central benzodiazepine receptor sites; conditions: relative to zopiclone (racemate)
[2] = not given; remark: listed apart in the source
[3] = test system: pentetrazol-induced convulsions; conditions: relative to zopiclone (racemate)
writhing reflex = conditions: relative to zopiclone (racemate)

Compound	toxicity as compared to the racemate	potency of action: affinity for central benzodiazepine receptor sites [1]	activity as compared to the racemate [2]	potency of action: antagonist activity with respect to pentetrazol-induced convulsions [3]	potency of action: writhing reflex test in mice (writhing reflex)
CN1CCN(C(=O)O[C@@H]2c3nccnc3C(=O)N2c2ccc(Cl)cn2)CC1 (single isomer, unassigned) [laevorotatory isomer]	more toxic than the racemate	almost inactive	almost inactive	almost inactive	almost inactive
CN1CCN(C(=O)O[C@H]2c3nccnc3C(=O)N2c2ccc(Cl)cn2)CC1 [dextrorotatory isomer, (+)-(5S)-6-(chloropyridin-2-yl)-7-oxo-6,7-dihydro-5H-pyrrol[3,4-b]pyrazin-5-yl 4-methylpiperazine-1-carboxylate]	lower toxicity	approximately twice as active	approximately twice as active	approximately twice as active	approximately twice as active
